Publication PMC7529893, “Structural basis for substrate recognition and chemical inhibition of oncogenic MAGE ubiquitin ligases” (Nature Communications, 2020)
≈ marks a conversion by molar mass, not a printed value. Entries after “also recorded” stand apart in the source; their conditions may differ.

Legend:
[1] = target: T1, MAGE-A11 binding to PCF11 (Homo sapiens, UniProt P43364); experiment: Pull-down (co-IP) of FLAG-MAGE-A11 with endogenous PCF11 in cell lysate; conditions: 100 µM, 24 h, FLAG-MAGE-A11 HEK293FT cell lysates
T1 construct: expressed in transfected cells
T1 sequence (P43364 1-429): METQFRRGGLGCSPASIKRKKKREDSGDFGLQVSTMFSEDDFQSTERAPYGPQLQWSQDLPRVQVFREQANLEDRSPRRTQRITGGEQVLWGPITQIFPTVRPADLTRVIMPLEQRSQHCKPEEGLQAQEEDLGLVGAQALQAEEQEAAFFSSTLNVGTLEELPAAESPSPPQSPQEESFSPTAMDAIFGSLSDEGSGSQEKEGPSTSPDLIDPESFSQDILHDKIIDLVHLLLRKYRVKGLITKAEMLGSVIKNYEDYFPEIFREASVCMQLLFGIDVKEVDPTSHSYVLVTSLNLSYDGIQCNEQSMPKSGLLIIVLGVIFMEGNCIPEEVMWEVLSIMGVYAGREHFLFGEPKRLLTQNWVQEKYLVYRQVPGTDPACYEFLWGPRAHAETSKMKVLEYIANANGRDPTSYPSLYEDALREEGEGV
Protocol: (§1) HEK293FT cells were plated in 6 cm^2 plates and transfected 24 h later with Effectene (QIAGEN) according to the manufacturer’s protocol. After 48 h, cells were washed and scraped in cold PBS, spun down, and resuspended in lysis buffer (50 mM Tris pH 7.4, 150 mM NaCl, 1 mM DTT, 0.1% (v/v) Triton X-100, 10 mM N-Ethylmaleimide, and 1X protease inhibitor cocktail (Sigma)). Cell lysates were incubated with appropriate antibodies overnight at 4 °C and then with protein A beads for 2 h at 4 °C. Beads were then washed with lysis buffer three times and eluted with 2X SDS sample buffer.
(§2) For western blotting, samples in SDS sample buffer were resolved on SDS-PAGE gels and then transferred to nitrocellulose membranes prior to blocking in TBST with 5% (w/v) milk powder or 3% (w/v) bovine serum albumin and probing with primary and secondary antibodies (GE Healthcare). Primary antibodies were: anti-Myc (Sigma, #C3956), anti-FLAG (Sigma, #F3165), anti-HUWE1 (Novus Biologicals, #NB 100-652), anti-PCF11 (Bethyl Laboratories, #A303-706A), anti-GAPDH (Cell Signaling Technology, #2118), anti-TRIM28 (Abcam, #ab22553), anti-AMPKα1 (Cell Signaling Technology, #2795), and anti-MMS19 (Proteintech, #16015-1-AP) and Tb-anti-GST (Invitrogen, #PV3551). Secondary antibodies were: Donkey Anti-Rabbit IgG (GE Healthcare, NA934V) and Sheep Anti-Mouse IgG (GE Healthcare, NA931V). […]

[2] = target: T2, MAGE-A3:AMPKα1 (Homo sapiens, UniProt P43357); experiment: Co-IP of MAGE-A3 with AMPKα1 in cell lysate; assay type: binding; conditions: 100 µM, 24 h
T2 construct: expressed in transfected cells
Protocol: as §1, §2

[3] = Solubility assay (μSOL Evolution); assay type: physicochemical; conditions: citrate phosphate-buffered saline (isotonic) with 1% DMSO; 18 h at RT
Protocol: Solubility assays were carried out on a Biomek FX lab automation workstation (Beckman Coulter, Inc., Fullerton, CA) using μSOL Evolution software (pION Inc., Woburn, MA). The detailed method is described as follows. 10 µl of 10 mM compound stock (in DMSO) was added to 190 μl 1-propanol to make a reference stock plate. In total, 5 µl from this reference stock plate were mixed with 70 µl 1-propanol and 75 µl citrate phosphate-buffered saline (PBS; isotonic) to make the reference plate, and the UV spectrum (250–500 nm) of the reference plate was read. In total, 6 µl of 10 mM test compound stock was added to 594 µl buffer in a 96-well storage plate and mixed. The storage plate was sealed and incubated at RT for 18 h. The suspension was then filtered through a 96-well filter plate (pION Inc., Woburn, MA). In all, 75 µl of filtrate was mixed with 75 µl 1-propanol to make the sample plate, and the UV spectrum of the sample plate was read. Calculations were carried out with μSOL Evolution software based on the area under the curve (AUC) of the UV spectrum of the sample and reference plates. All compounds were tested in triplicate.

[4] = High throughput Caco-2 permeability; assay type: in vitro ADME; conditions: human, Caco-2, pH 7.4, 10 µmol/l, 2 h; for Papp A→B at 2 h, 10 µmol/l: apical to basolateral; for Papp B→A at 2 h, 10 µmol/l: basolateral to apical
Protocol: High throughput Caco-2 permeability was performed in the TranswellR 0.4 µm polycarbonate membrane 96-well system with modified methods. Caco-2 cells were maintained at 37 °C in a humidified incubator with an atmosphere of 5% CO2. The cells were cultured in 75 cm^2 flasks with Dulbecco’s Modified Eagle’s Medium (DMEM) containing 10% (v/v) FBS, 1% (v/v) non-essential amino acids (NEAA), 100 units/ml of penicillin, and 100 µg/ml of streptomycin. The Caco-2 cells were seeded onto inserts at a density of 2 × 10^4 cells/insert separately. The medium in the wells was exchanged each other day, and the trans epithelial electrical resistance (TEER) value was measured using an epithelial voltohm meter (Millipore, Billerica, Massachusetts). […] For transport experiments, each cultured monolayer on the 96-well plate was washed twice with a transport buffer (HBSS containing 25 mM HEPES, pH 7.4). The permeability assay was initiated by the addition of each compound solution (10 µmol/l) into inserts (apical side, A) or receivers (basolateral side, B). The Caco-2 cell monolayers were incubated for 2 h at 37 °C. Fractions were collected from receivers (if apical to basal permeability) or inserts (if basal to apical permeability), and concentrations were assessed by UPLC/MS (Waters; Milford, MA). All compounds were tested in triplicates. The A → B (or B → A) apparent permeability coefficients (Papp) of each compound were calculated using the equation, Papp = dQ/dt × 1/AC0, where dQ/dt equals the flux of a drug across the monolayer, A equals the total insert well surface area, and C0 is the initial concentration of substrate in the donor compartment. The efflux ratio was determined by dividing the Papp in the B-A direction by the Papp in the A-B direction.

T2 sequence (P43357 whole entry): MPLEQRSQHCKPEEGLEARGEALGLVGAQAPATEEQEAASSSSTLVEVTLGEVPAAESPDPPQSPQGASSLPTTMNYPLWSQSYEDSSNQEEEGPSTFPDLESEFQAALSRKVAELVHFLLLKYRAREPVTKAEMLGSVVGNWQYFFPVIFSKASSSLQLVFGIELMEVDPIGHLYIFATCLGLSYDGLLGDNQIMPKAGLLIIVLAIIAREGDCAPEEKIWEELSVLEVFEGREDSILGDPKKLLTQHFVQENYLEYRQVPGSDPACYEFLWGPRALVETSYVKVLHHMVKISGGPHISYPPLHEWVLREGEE

SMILES | MAGE-A11 binding to PCF11 in cell lysate ([1]; listed as SJ521054) | interaction of MAGE-A3 with AMPKα1 in cell lysate ([2]; listed as SJ521054) | solubility at 18 h [3] | Papp A→B at 2 h, 10 µmol/l [4] | Papp B→A at 2 h, 10 µmol/l [4] | MAGE-A11 binding to PCF11 in cell lysate ([1]; listed as SJ1008066) | interaction of MAGE-A3 with AMPKα1 in cell lysate ([2]; listed as SJ1008066)
FC(F)(F)c1ccc2c(NCCCNCc3ccc4[nH]ccc4c3)ccnc2c1 [SJ000521054-02] | inhibited MAGE-A11 binding to PCF11 in cell lysates | do not disrupt interaction; also recorded: did not disrupt interaction | 26.5 µM (≈ 10.6 µg/mL) | 11.5 ×10⁻⁶ cm/s | 14.2 ×10⁻⁶ cm/s |  | 
c1ccc2c(NCCCNCc3ccc4[nH]ccc4c3)ccnc2c1 [SJ001008066-01] |  |  | 37.8 µM (≈ 12.5 µg/mL) | 8.17 ×10⁻⁶ cm/s | 8.09 ×10⁻⁶ cm/s | inhibited MAGE-A11 binding to PCF11 in cell lysates | do not disrupt interaction; also recorded: did not disrupt interaction
